Measured values from patent US11077138B2, “Methods of tissue repair and regeneration” (INNOLIFE CO., LTD., priority 2015, dated 2021).
“Also recorded” adds a separate entry of the source.

Tests used:
[1] = test system: BMSCs homing (SDF-1/CXCR4 axis); assay: Tracking of homing of labeled autologous BMSCs to the infarcted rabbit heart; assay type: in vivo, New Zealand white rabbits; details: BMSCs incubated overnight with AMD3100
Experimental: (1) Adult male New Zealand white rabbits were preoperative fasted for 12 hours, and the operation room was sterilized by overnight ultraviolet radiation before the surgery. (2) Rabbits were anesthetized with 3 ml/kg chloral hydrate by intraperitoneal administration, and then placed on the operation table in the supine position. Hairs covering chest and limbs at electrode attachment site were shaved. The surgical area was scrubbed with povidone-iodine for 3 consecutive times. Lidocaine was injected into the subcutaneous area around the incision site. (3) Electrodes were attached to the limbs and ECG (electrocardiogram) was recorded 30 minutes before and after the surgery. (4) The rabbits were subjected to a median sternotomy. The skin was cut and the s.c. tissue and the muscular was dissected. Afterwards, the sternum was retracted and the pleuron was dissected, the pleural space was opened and so the pericardium was exposed. (5) After gently incision of the pericardium, the heart was exposed and the left circumflex branch (LC) was ligated. […] (6) Color changes of the anterior ventricular wall, the difference of left ventricular wall motion, and alterations including ST segment recorded by electrodes II, III, and aVF in ECG was monitored for 2 minutes to ensure that the ligation was successful. […]

[2] = test system: isolated rat aortic rings; assay: Isolated rat aortic ring assay for angiogenesis; assay type: cell-based, Sprague Dawley rats; details: 8 days
From the text: Thoracic aortas were removed from 8- to 10-week-old male Sprague Dawley (SD) rats (292-307 g) and immediately transferred to a culture dish containing ice-cold serum-free endothelial basal medium-2 (EBM-2, Lonza Cologne AG). The periaortic fibroadipose tissue was carefully removed with fine microdissecting forceps and iridectomy scissors; paying special attention not to damage the aortic wall. One-millimeter long aortic rings were sectioned and extensively rinsed in five consecutive washes with EBM-2.
Forty-eight well tissue culture grade plates were covered with 100 μl of matrigel (GFR, BD) and allowed to gel for 45 min at 37° C., 5% CO2. Aortic rings were placed on the matrigel-coated wells, covered with an additional 100 μl matrigel and allowed to gel again for 45 min at 37° C., 5% CO2. The culture was then added 250 μl EBM-2 containing 1% fetal bovine serum (FBS). Copper sulfide solution was added to the culture at a final concentration of 5, 25, 50 or 100 μM copper element. The growth media were removed and replaced every 2 days. Aortic rings were photographed on Day 8.
The area of angiogenic sprouting was calculated using the Image J software program (NIH, Bethesda, Md.). Microvessel densities are reported in square pixels.
(§1) Aortic rings were cultured in 48-well plates in 250 μl EBM-2 (1% FBS) media containing anti-VEGF antibody (Santa Cruz, Calif., USA) at a final concentration of 2 ng/ml. The treatment and angiogenesis assay were the same as above.

[3] = test system: VEGF; assay: Western blotting analysis of VEGF in isolated rat aortic rings; assay type: cell-based, Sprague Dawley rats; details: for production of VEGF (protein level): 8 days
Experimental: Protein extracts were obtained after lysing rat aortic rings with matrigel in the radio immunoprecipitation assay (RIPA) lysis buffer (Beyotime, Jiangsu, CN) containing 1% complete ethylene diamine tetraacetic acid (EDTA)-free protease inhibitor cocktail (Roche, Mannhein, DE) for 30 min on ice. Equal loading of protein was assured by prior quantitation using a bicinchoninic acid (BCA) protein assay kit (Thermo, Rockford, USA). An appropriate amount of protein in total lysates was resolved in a sodium dodecyl sulfate (SDS)-polyacrylamide electrophoresis gel and transferred onto a polyvinylidene difluoride membrane (Bio-rad, USA). Membranes were blocked for 1 h in Tris-buffered saline/Tween 20 (TBST) (10 mM Tris.HCl, pH 8.0, 150 mM NaCl and 0.1% Tween 20) containing 5% nonfat dry milk and incubated overnight at 4° C. with the primary mouse anti-VEGF antibody (Santa Cruz, Calif., USA) and mouse antibeta actin antibody (ZSGB-BIO, Beijing, CN) diluted in the blocking buffer. After washing with TBST, the membranes were incubated with a horseradish peroxidase (HRP)-linked antimouse immunoglobulin G (IgG) antibody (ZSGB-BIO, Beijing, CN) diluted in TBST for 1 h at room temperature. Target proteins were visualized using a chemiluminescence HRP substrate (Millipore, Billerica, USA).
as §1

[4] = test system: HIF-1; assay: Hypoxia-induced activation of HIF-1 in HepG2 cells; assay type: cell-based, human
From the text: There are multiple sites that potentially require copper for activation of HIF-1, including HIF-1α synthesis, stabilization, translocation from cytosol to nucleus, binding to the HRE sequence of target genes, and HIF-1 transcriptional complex formation. We have specifically determined the mechanism of action of copper in regulation of HIF-1 transcriptional activity in human hepatoma HepG2 cells. […] This CCS gene silencing result excludes possible confounding effect on nonspecific chelation by TEPA. […] Therefore, it was concluded that copper is required for HIF-1 activation through regulation of HIF-1α binding to the HRE and the formation of HIF-1 transcriptional complex. Copper deficiency thus suppresses HIF-1 transcriptional activity by FIH-1 depression.

[5] = copper at concentrations above 50 μM

Question: What does the source list for c1cc(CN2CCCNCCNCCCNCC2)ccc1CN1CCCNCCNCCCNCC1 [AMD3100]?
Answer: homing of AMD3100 treated BMSCs to Cu-albumin-microbubble treated chronic ischemic area ([1]; 6 months after MI surgery, Cu-albumin-microbubble treated): homing signals could not be observed; also recorded: no BMSCs homing signal; homing of AMD3100 treated BMSCs to acute cardiac infarct area ([1]; within 1 month after MI surgery): could not home cardiac infarct area; also recorded: significant decrease of BMSCs homing signals

Question: For NCCNCCNCCNCCN [TEPA, tetraethylenepentamine], which “copper promotion of angiogenesis, TEPA with copper” value ([2]; 25 μM TEPA simultaneously with 5 μM copper) is on record?
Answer: blocked; also recorded: completely suppressed the angiogenic promotion effect of 5 μM copper

Question: What about the “angiogenesis, TEPA alone” value ([2]; 25 μM TEPA) of the same compound?
Answer: caused an inhibition of angiogenesis

Question: What about the VEGF levels ([3]; 25 μM TEPA, with or without 5 μM copper) of the same compound?
Answer: significantly decreased VEGF levels

Question: And the “hypoxia-induced activation of HIF-1” value [4]?
Answer: suppressed hypoxia-induced activation of HIF-1

Question: Which “angiogenesis (area of angiogenic sprouting)” value ([2]; 5 μM copper, EBM-2 with 1% FBS) does the source give for Copper sulfide here?
Answer: stimulated the vascular formation; also recorded: strongest promotion effect on the angiogenesis

Question: What about the “angiogenesis (area of angiogenic sprouting)” value [2, 5] of the same compound?
Answer: lost the pro-angiogenesis effect; also recorded: significantly inhibitory effect

Question: What about the “production of VEGF (protein level)” value ([3]; 5 μM copper) of the same compound?
Answer: did not enhance the production of VEGF

Question: And the “production of VEGF (protein level)” value [3, 5]?
Answer: significantly increased the production of VEGF
